Measured values: patent publication EP1960783B1, “REDUCTION OF NON-SPECIFIC BINDING IN ASSAYS” (Siemens Healthcare Diagnostics Inc., priority 2005, dated 2007)

Assay: Blocking of non-specific binding by candidate blocker additives in the LOCI assay for CTNI (troponin) on the VISTA analyzer
Details: for % supression*: NSB 1 sample vs PBS control
Description: Samples from a local blood bank were screened to determine if they produced a response with the troponin assay. Any donor sample that produced a positive result with the troponin test was assumed to be a false positive. This was confirmed by testing all samples that gave positive responses with at least one commercially available reference method. For the results reported here, the test results were confirmed using the Dade Behring DIMENSION Rxl® troponin (CTNI) test. The false positive samples were further screened for known causes of false positivity. The primary root cause of false positive results is human antibodies that bind mouse antibodies, an interference known as "HAMA" (Human Anti-Mouse Antibodies). The screening process used to determine if samples have HAMA interference consists of adding known HAMA binders (also known as blocking agents) that are available commercially from Roche and Scantibodies. If a sample that gives a positive response becomes normal when HAMA binders are added to the sample, the sample is assumed to be a false positive due to HAMA. Some samples were not corrected by the addition of HAMA binders. These were used in the testing described in the following examples.
An assay for CTNI, described in "Quantitation of Cardiac Markers by LOCI™ Technology", R. Bauer, et al., (Clinical Chemistry 2004; 50(6 supplement): A5) was used for evaluation of the candidate blocker compounds. The reagents for doing this assay consist of an antibody coated acceptor latex (acceptor bead) that emits light when contacted by singlet oxygen, a biotinylated antibody, and a streptavidin coated donor latex that produces singlet oxygen when illuminated by light of wavelengths that are absorbed by a photosensitizer dye dissolved in the latex particles. The streptavidin of the donor latex was bound to the latex particles through a spacer of dextran with aldehyde linking groups. In the case of the acceptor beads, the antibody was connected to the particles through a linking group or spacer that results from a combination of aminodextran and dextranaldehyde. For both latex reagents, the excess aldehyde groups remaining after linkage of the proteins are reacted with carboxymethoxyamine to quench the aldehydes.
These reagents are packaged in FLEX® containers that serve as reservoirs for the VISTA™ automated clinical analyzer that is described in "Development and Initial Performance of a New High-Volume Multi-Detector Analyzer: The DIMENSION VISTA™ Integrated System", T. Evers, et al. (Clinical Chemistry 2004; 50(6 supplement)) A31. The test kits and the analyzer are available from Dade Behring Inc., Newark, DE, USA. Candidate blocking reagents (soluble protein-polysaccharide conjugates (preformed or formed in situ) that reduce or eliminate interference from sample components) were tested by adding them (or a precursor such as, e.g., dextran aldehyde) to the biotinylated antibody reagent in prototype FLEX® containers or in some cases directly to the sample. FLEX® containers are from Dade Behring Inc.
Each test result shown in the tables below is the average of four test results. In general, the precision of the measurements was <2% CV for calibrators and for measurements of discrepant samples in those cases where effective blockers were used. The testing was done on different days with different instruments, so many control tests were needed to enable comparison of different sets of data.
Dextranaldehyde reacts with proteins to form Schiff's bases between the aldehyde functionality and the lysine amino groups of proteins thereby producing a conjugate. This reaction was accomplished by adding 5 mg/mL 500 kDa dextranaldehyde to the biotinylated antibody reagent of the CTNI FLEX® container, which contains 50 mg/mL of BSA in a pH 7.2 HEPES buffer with 1mg/mL 100-200 KDa dextran. […]

[1] = Table 4, additive 1 mg/mL added to sample
[2] = Table 4, additive 1 mg/mL added to calibrators and sample, held half an hour before testing
[3] = Table 5 Run 1, additive 5 mg/mL in biotinylated antibody reagent
[4] = Table 5 Run 2, additive 5 mg/mL in biotinylated antibody reagent

For “100-200-Dexal-BSA-10: dextranaldehyde from 100-200 kDa dextran conjugated with BSA, 100 parts dextranaldehyde to 10 parts BSA”, which “% supression*” value [1] is on record?
The value was 98.2%.

And the “Test Result Counts Cal 0” value [2]?
The value was 8,389 Counts.

What about the “Test Result Counts Cal 8” value [2] of the same substance?
The value was 954,766 Counts.

And the “Test Result Counts NSB 1” value [2]?
Its value is 26,160 Counts.

What does the source list for “100-200-Dexal-BSA-30: dextranaldehyde prepared from 100-200 kDa dextran conjugated with BSA at 100 parts dextranaldehyde to 30 parts BSA”?
% supression* [1]: 99.7%; Test Result Counts Cal 0 [2]: 8,460 Counts; Test Result Counts Cal 8 [2]: 969,563 Counts; Test Result Counts NSB 1 [2]: 11,242 Counts

With “100-200-Dexal-BSA-50, first lot: 100-200 kDa dextranaldehyde conjugated with BSA, 100 parts to 50 parts” as the substance, how does the “% supression*” value [3] read?
The value was 99.95%.

And the “Test Result Counts Cal 0” value [3]?
Its value is 6,578 Counts.

And the “Test Result Counts Cal 8” value [3]?
The value was 743,213 Counts.

What about the “Test Result Counts NSB 1” value [3] of the same substance?
Its value is 7,005 Counts.

With “100-200-Dexal-BSA-50, second lot: 100-200 kDa dextranaldehyde conjugated with BSA, 100 parts to 50 parts” as the substance, how does the “% supression*” value [3] read?
The value was 100.00%.

And the “Test Result Counts Cal 0” value [3]?
Its value is 7,136 Counts.

And the “Test Result Counts Cal 8” value [3]?
Its value is 807,327 Counts.

And the “Test Result Counts NSB 1” value [3]?
Its value is 7,134 Counts.

Which “% supression*” value [3] does the source give for “100-200-Dexal-BSA-100: 100-200 kDa dextranaldehyde conjugated with BSA, 100 parts to 100 parts” here?
The value was 99.97%.

And the “Test Result Counts Cal 0” value [3]?
Its value is 7,320 Counts.

What about the “Test Result Counts Cal 8” value [3] of the same substance?
The value was 823,386 Counts.

And the “Test Result Counts NSB 1” value [3]?
Its value is 7,544 Counts.

What does the source list for “100-200-Dexal-ovalbumin-100: 100-200 kDa dextranaldehyde conjugated with ovalbumin, 100 parts to 100 parts”?
% supression* [4]: 95.93%; Test Result Counts Cal 0 [4]: 6,370 Counts; Test Result Counts Cal 8 [4]: 734,218 Counts; Test Result Counts NSB 1 [4]: 39,569 Counts

For “100-200-Dexat-ovalbumin-50: 100-200 kDa dextranaldehyde conjugated with ovalbumin, 100 parts to 50 parts”, which “% supression*” value [4] is on record?
Its value is 99.26%.

What about the “Test Result Counts Cal 0” value [4] of the same substance?
The value was 6,573 Counts.

What about the “Test Result Counts Cal 8” value [4] of the same substance?
Its value is 749,661 Counts.

What about the “Test Result Counts NSB 1” value [4] of the same substance?
The value was 12,630 Counts.

For “BSA conjugate formed in situ: conjugate formed by adding 5 mg/mL 500 kDa dextranaldehyde to reagent containing 50 mg/mL BSA”, which “blocking the nonspecific binding” value (summary in words of Table 2, discrepant samples NSB 1-29) is on record?
Its value is “nearly bringing the falsely elevated results to the same level as the zero calibrator”.

And the blocking the interference (summary in words of Table 7, compared with the carboxymethyloxime derivative of dexal)?
Its blocking the interference is “significantly more effective”.
